Data: US20220257540A1, “COMPOSITIONS AND METHODS FOR TREATMENT OF HEPATITIS B VIRUS INFECTION” (ANHUI RONGHANG BIOTECH DEVELOPMENT CO., LTD., priority 2019, published 2022)
Where two headings read alike, the source gives them in different places.

Assays:
[1] = system: HBV GT C; assay: In vitro anti-HBV efficacy in HBV-infected PXB-cells; type: cell-based; conditions: for Extracellular HBV DNA / Extracellular HBsAg / Intracellular HBV DNA / Intracellular cccDNA / anti-HBV efficacy: Day 27; for Extracellular HBeAg: Day 27, 10 fold diluted sample; for anti-HBV efficacy: HBV-infected PXB-cells
Description: Materials & Methods: PXB-cells was infected with HBV GT C. […] The anti-HBV therapeutic efficacy was measured by the analysis of extracellular HBV DNA, HBsAg, HBeAg, h-Alb, and intracellular HBV DNA/cceDNA levels. Entecavir was used as the positive control. The hepatocytes isolated from 3 mice were combined to seed culture plate. The cell density of mixed cell was 7.37×10^6 cells/mL. PXB-cells® are the fresh hepatocytes which are isolated from PXB-mice. Cells viability after isolation: >80%. Donor Hepatocytes were purchased from Corning, Incorporated (Tewksbury, Mass., USA), Lot: BD195 ([…]). […] Entecavir was purchased from Santa-cruz, Lot: 10914, Concentration: 1 mM. Plates was observed under microscopy and photographed.

[2] = ingested more than 0.8 mg/kg; cited from earlier work
[3] = system: chronic Hepatitis B; conditions: 1 mg a day orally for 5 days-a-week over 6 months, cited from earlier work
[4] = cited from earlier work; for Peak blood level (Cmax) / Exposure (area under the curve) / terminal half-life: fasted healthy volunteers; for mean Cmax: healthy adults, capsules orally
[5] = system: liver fibrosis; conditions: rats with carbon tetrachloride induced cirrhosis; cited from earlier work
[6] = system: HBV-related postnecrotic cirrhosis; conditions: double-blind controlled trial, 100 patients; cited from earlier work
[7] = biological target: P-gp (Homo sapiens, UniProt P08183); conditions: cited from earlier work
Chain of P-gp (P08183 whole entry): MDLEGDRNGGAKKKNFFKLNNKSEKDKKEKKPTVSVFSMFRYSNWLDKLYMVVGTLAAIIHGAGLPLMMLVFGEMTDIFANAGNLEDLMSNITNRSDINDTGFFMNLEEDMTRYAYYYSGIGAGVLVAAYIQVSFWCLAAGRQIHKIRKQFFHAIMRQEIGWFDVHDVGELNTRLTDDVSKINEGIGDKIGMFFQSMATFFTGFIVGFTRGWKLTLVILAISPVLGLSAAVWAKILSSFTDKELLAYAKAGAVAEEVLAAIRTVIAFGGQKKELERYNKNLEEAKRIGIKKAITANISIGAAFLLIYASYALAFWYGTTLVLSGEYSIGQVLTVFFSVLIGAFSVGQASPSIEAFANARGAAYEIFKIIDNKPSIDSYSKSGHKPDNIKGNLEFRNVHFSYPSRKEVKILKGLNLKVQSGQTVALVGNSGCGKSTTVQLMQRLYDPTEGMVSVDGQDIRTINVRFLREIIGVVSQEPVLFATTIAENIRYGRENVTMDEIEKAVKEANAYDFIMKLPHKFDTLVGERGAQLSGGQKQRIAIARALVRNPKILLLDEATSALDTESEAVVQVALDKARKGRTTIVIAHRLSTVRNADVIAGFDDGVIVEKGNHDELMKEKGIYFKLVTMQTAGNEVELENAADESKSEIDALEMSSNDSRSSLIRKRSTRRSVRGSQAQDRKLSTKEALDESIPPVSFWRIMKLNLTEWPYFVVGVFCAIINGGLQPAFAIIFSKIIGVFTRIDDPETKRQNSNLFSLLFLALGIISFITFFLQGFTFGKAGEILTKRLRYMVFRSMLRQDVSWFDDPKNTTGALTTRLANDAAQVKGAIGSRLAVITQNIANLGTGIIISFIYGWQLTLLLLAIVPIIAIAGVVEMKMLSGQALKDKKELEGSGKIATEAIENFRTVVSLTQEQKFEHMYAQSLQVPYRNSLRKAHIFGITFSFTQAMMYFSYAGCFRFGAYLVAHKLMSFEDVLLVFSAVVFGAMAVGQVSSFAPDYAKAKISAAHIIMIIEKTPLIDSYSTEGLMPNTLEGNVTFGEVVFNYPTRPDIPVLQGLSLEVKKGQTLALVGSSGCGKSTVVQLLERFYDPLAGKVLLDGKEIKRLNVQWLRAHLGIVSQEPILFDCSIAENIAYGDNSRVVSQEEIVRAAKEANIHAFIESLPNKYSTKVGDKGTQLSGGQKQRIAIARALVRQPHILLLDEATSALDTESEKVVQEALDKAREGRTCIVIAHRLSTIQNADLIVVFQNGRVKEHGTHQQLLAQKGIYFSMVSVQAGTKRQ

SMILES: COc1cc2c(c(OC)c1OC)-c1ccc(OC)c(=O)cc1[C@@H](NC(C)=O)CC2 [Colchicine, N [5,6,7,9-tetrahydro-1,2,3,10-tetratmethoxy 9-oxobenzo[a]heptalen-7-yl], (S)-acetamide]
- Extracellular HBV DNA ([1]; Colchicine 1 nM): 7.06 Log copies/mL
- Extracellular HBsAg ([1]; Colchicine 1 nM): 23.1 IU/mL
- Intracellular HBV DNA ([1]; Colchicine 1 nM): 250511 copies/100 ng DNA
- Intracellular cccDNA ([1]; Colchicine 1 nM): 217 copies/100 ng DNA
- Extracellular HBeAg ([1]; Colchicine 1 nM): 14.7 C.O.I
- Extracellular HBV DNA ([1]; Colchicine 2 nM): 7.06 Log copies/mL
- Extracellular HBsAg ([1]; Colchicine 2 nM): 23.5 IU/mL
- Intracellular HBV DNA ([1]; Colchicine 2 nM): 235131 copies/100 ng DNA
- Intracellular cccDNA ([1]; Colchicine 2 nM): 207 copies/100 ng DNA
- Extracellular HBeAg ([1]; Colchicine 2 nM): 16.2 C.O.I
- Extracellular HBV DNA ([1]; Colchicine 3.9 nM): 7.16 Log copies/mL
- Extracellular HBsAg ([1]; Colchicine 3.9 nM): 26.7 IU/mL
- Intracellular HBV DNA ([1]; Colchicine 3.9 nM): 282895 copies/100 ng DNA
- Intracellular cccDNA ([1]; Colchicine 3.9 nM): 247 copies/100 ng DNA
- Extracellular HBeAg ([1]; Colchicine 3.9 nM): 19.2 C.O.I
- Extracellular HBV DNA ([1]; Colchicine 7.8 nM): 7.06 Log copies/mL
- Extracellular HBsAg ([1]; Colchicine 7.8 nM): 25.5 IU/mL
- Intracellular HBV DNA ([1]; Colchicine 7.8 nM): 270324 copies/100 ng DNA
- Intracellular cccDNA ([1]; Colchicine 7.8 nM): 227 copies/100 ng DNA
- Extracellular HBeAg ([1]; Colchicine 7.8 nM): 17.4 C.O.I
- Extracellular HBV DNA ([1]; Colchicine 15.6 nM): 6.86 Log copies/mL
- Extracellular HBsAg ([1]; Colchicine 15.6 nM): 25.2 IU/mL
- Intracellular HBV DNA ([1]; Colchicine 15.6 nM): 256994 copies/100 ng DNA
- Intracellular cccDNA ([1]; Colchicine 15.6 nM): 261 copies/100 ng DNA
- Extracellular HBeAg ([1]; Colchicine 15.6 nM): 16.3 C.O.I
- Extracellular HBV DNA ([1]; Colchicine 31.3 nM): 6.06 Log copies/mL
- Extracellular HBsAg ([1]; Colchicine 31.3 nM): 2.17 IU/mL
- Intracellular HBV DNA ([1]; Colchicine 31.3 nM): 52249 copies/100 ng DNA
- Intracellular cccDNA ([1]; Colchicine 31.3 nM): 80 copies/100 ng DNA
- Extracellular HBeAg ([1]; Colchicine 31.3 nM): 3.6 C.O.I
- Extracellular HBV DNA ([1]; Colchicine 62.5 nM): 4.86 Log copies/mL
- Extracellular HBsAg ([1]; Colchicine 62.5 nM): 0.12 IU/mL
- Intracellular HBV DNA ([1]; Colchicine 62.5 nM): 9638 copies/100 ng DNA
- Intracellular cccDNA ([1]; Colchicine 62.5 nM): +
- Extracellular HBeAg ([1]; Colchicine 62.5 nM): 0.7 C.O.I
- Extracellular HBV DNA ([1]; Colchicine 125 nM): 4.86 Log copies/mL
- Extracellular HBsAg ([1]; Colchicine 125 nM): <0.05 IU/mL
- Intracellular HBV DNA ([1]; Colchicine 125 nM): 8341 copies/100 ng DNA
- Intracellular cccDNA ([1]; Colchicine 125 nM): +
- Extracellular HBeAg ([1]; Colchicine 125 nM): 0.3 C.O.I
- Extracellular HBV DNA ([1]; Colchicine 250 nM): 4.86 Log copies/mL
- Extracellular HBsAg ([1]; Colchicine 250 nM): <0.05 IU/mL
- Intracellular HBV DNA ([1]; Colchicine 250 nM): 9187 copies/100 ng DNA
- Intracellular cccDNA ([1]; Colchicine 250 nM): +
- Extracellular HBeAg ([1]; Colchicine 250 nM): 0.2 C.O.I
- Extracellular HBV DNA ([1]; Colchicine 500 nM): 4.86 Log copies/mL
- Extracellular HBsAg ([1]; Colchicine 500 nM): <0.05 IU/mL
- Intracellular HBV DNA ([1]; Colchicine 500 nM): 9019 copies/100 ng DNA
- Intracellular cccDNA ([1]; Colchicine 500 nM): +
- Extracellular HBeAg ([1]; Colchicine 500 nM): 0.2 C.O.I
- Extracellular HBV DNA ([1]; Colchicine 1000 nM): 4.86 Log copies/mL
- Extracellular HBsAg ([1]; Colchicine 1000 nM): <0.05 IU/mL
- Intracellular HBV DNA ([1]; Colchicine 1000 nM): 8717 copies/100 ng DNA
- Intracellular cccDNA ([1]; Colchicine 1000 nM): 29 copies/100 ng DNA
- Extracellular HBeAg ([1]; Colchicine 1000 nM): 0.2 C.O.I
- anti-HBV efficacy [1]: anti-HBV efficacy in a dose dependent manner
- mortality [2]: 100%
- patients failed (response rate) ([3]; pilot study): 3 of 7
- sustained response, treated patients ([3]; two-center trial, 4 of 6 treated patients): 66.6%
- Peak blood level (Cmax) ([4]; high-dose (1.2 mg followed by 0.6 mg every hour for 6 h; 4.8 mg total)): 6.84 ng/mL
- Exposure (area under the curve) ([4]; high-dose (4.8 mg total)): 118.2 ng/h/mL
- terminal half-life ([4]; high-dose (4.8 mg total)): 31.4 h
- Peak blood level (Cmax) ([4]; low-dose (1.2 mg followed by 0.6 mg in 1 h; 1.8 mg total)): 6.19 ng/mL
- Exposure (area under the curve) ([4]; low-dose (1.8 mg total)): 52.1 ng/h/mL
- terminal half-life ([4]; low-dose (1.8 mg total)): 23.6 h
- Exposure (area under the curve) ([4]; single dose (0.6 mg)): 14.1 ng/h/mL
- terminal half-life ([4]; single dose (0.6 mg)): 6.36 h
- mean Cmax ([4]; 0.6 mg single dose): 3 ng/mL
- mean Cmax ([4]; 1.0 mg single dose): 6.50 ± 1.03 ng/mL
- Absolute bioavailability ([4]; human, in vivo): approximately 45%
- liver fibrosis [5]: decrease liver fibrosis
- effect in the treatment of HBV-related postnecrotic cirrhosis [6]: no effect

SMILES: C=C1[C@H](CO)[C@@H](O)C[C@@H]1n1cnc2c(=O)[nH]c(N)nc21 [Entecavir]
- Extracellular HBV DNA ([1]; Entecavir 9.8 pM): 6.36 Log copies/mL
- Extracellular HBsAg ([1]; Entecavir 9.8 pM): 16.0 IU/mL
- Intracellular HBV DNA ([1]; Entecavir 9.8 pM): 91546 copies/100 ng DNA
- Intracellular cccDNA ([1]; Entecavir 9.8 pM): 125 copies/100 ng DNA
- Extracellular HBeAg ([1]; Entecavir 9.8 pM): 11.6 C.O.I
- Extracellular HBV DNA ([1]; Entecavir 19.5 pM): 5.76 Log copies/mL
- Extracellular HBsAg ([1]; Entecavir 19.5 pM): 14.2 IU/mL
- Intracellular HBV DNA ([1]; Entecavir 19.5 pM): 53766 copies/100 ng DNA
- Intracellular cccDNA ([1]; Entecavir 19.5 pM): 82 copies/100 ng DNA
- Extracellular HBeAg ([1]; Entecavir 19.5 pM): 10.0 C.O.I
- Extracellular HBV DNA ([1]; Entecavir 39.1 pM): 5.06 Log copies/mL
- Extracellular HBsAg ([1]; Entecavir 39.1 pM): 12.2 IU/mL
- Intracellular HBV DNA ([1]; Entecavir 39.1 pM): 30701 copies/100 ng DNA
- Intracellular cccDNA ([1]; Entecavir 39.1 pM): 69 copies/100 ng DNA
- Extracellular HBeAg ([1]; Entecavir 39.1 pM): 8.1 C.O.I
- Extracellular HBV DNA ([1]; Entecavir 78.1 pM): 4.66 Log copies/mL
- Extracellular HBsAg ([1]; Entecavir 78.1 pM): 15.7 IU/mL
- Intracellular HBV DNA ([1]; Entecavir 78.1 pM): 14257 copies/100 ng DNA
- Intracellular cccDNA ([1]; Entecavir 78.1 pM): 82 copies/100 ng DNA
- Extracellular HBeAg ([1]; Entecavir 78.1 pM): 9.8 C.O.I
- Extracellular HBV DNA ([1]; Entecavir 156.3 pM): 4.56 Log copies/mL
- Extracellular HBsAg ([1]; Entecavir 156.3 pM): 15.1 IU/mL
- Intracellular HBV DNA ([1]; Entecavir 156.3 pM): 5620 copies/100 ng DNA
- Intracellular cccDNA ([1]; Entecavir 156.3 pM): 61 copies/100 ng DNA
- Extracellular HBeAg ([1]; Entecavir 156.3 pM): 9.6 C.O.I
- Extracellular HBV DNA ([1]; Entecavir 312.5 pM): 4.46 Log copies/mL
- Extracellular HBsAg ([1]; Entecavir 312.5 pM): 14.3 IU/mL
- Intracellular HBV DNA ([1]; Entecavir 312.5 pM): 3752 copies/100 ng DNA
- Intracellular cccDNA ([1]; Entecavir 312.5 pM): 34 copies/100 ng DNA
- Extracellular HBeAg ([1]; Entecavir 312.5 pM): 9.4 C.O.I
- Extracellular HBV DNA ([1]; Entecavir 625 pM): 4.46 Log copies/mL
- Extracellular HBsAg ([1]; Entecavir 625 pM): 13.0 IU/mL
- Intracellular HBV DNA ([1]; Entecavir 625 pM): 2954 copies/100 ng DNA
- Intracellular cccDNA ([1]; Entecavir 625 pM): +
- Extracellular HBeAg ([1]; Entecavir 625 pM): 8.9 C.O.I
- Extracellular HBV DNA ([1]; Entecavir 1.25 nM): 4.46 Log copies/mL
- Extracellular HBsAg ([1]; Entecavir 1.25 nM): 11.2 IU/mL
- Intracellular HBV DNA ([1]; Entecavir 1.25 nM): 3031 copies/100 ng DNA
- Intracellular cccDNA ([1]; Entecavir 1.25 nM): +
- Extracellular HBeAg ([1]; Entecavir 1.25 nM): 6.9 C.O.I
- Extracellular HBV DNA ([1]; Entecavir 5 nM): 4.26 Log copies/mL
- Extracellular HBsAg ([1]; Entecavir 5 nM): 10.9 IU/mL
- Intracellular HBV DNA ([1]; Entecavir 5 nM): 2974 copies/100 ng DNA
- Intracellular cccDNA ([1]; Entecavir 5 nM): 33 copies/100 ng DNA
- Extracellular HBeAg ([1]; Entecavir 5 nM): 7.1 C.O.I
- Extracellular HBV DNA ([1]; Entecavir 10 nM): 4.46 Log copies/mL
- Extracellular HBsAg ([1]; Entecavir 10 nM): 11.6 IU/mL
- Intracellular HBV DNA ([1]; Entecavir 10 nM): 2936 copies/100 ng DNA
- Intracellular cccDNA ([1]; Entecavir 10 nM): +
- Extracellular HBeAg ([1]; Entecavir 10 nM): 7.4 C.O.I
- anti-HBV efficacy [1]: anti-HBV efficacy in a dose dependent manner

SMILES: CCOC/C=C/c1ccc(-c2nc(-c3ccc(NC(C)C)cc3)c(-c3ccc(NC(C)C)cc3)[nH]2)cc1 [OC144093, 4-[2-[4-[(E)-3-ethoxyprop-1-enyl]phenyl]-4-[4-(propan-2-ylamino)phenyl]-1H-imidazol-5-yl]-N-propan-2-ylaniline]
- potency relative to the first and second-generation P-gp inhibitors [7]: about 10 fold

SMILES: COc1cc2c(cc1OC)CN(CCc1ccc(NC(=O)c3cc(OC)c(OC)cc3NC(=O)c3cnc4ccccc4c3)cc1)CC2 [XR9576, N-[2-[[4-[2-(6,7-Dimethoxy-3,4-dihydro-1H-isoquinolin-2-yl)ethyl]phenyl]c-arbamoyl]-4,5-dimethoxyphenyl]quinoline-3-carboxamide]
- potency relative to the first and second-generation P-gp inhibitors [7]: about 10 fold
